Measurements from publication PMC4745685, “Caffeine affects the biological responses of human hematopoietic cells of myeloid lineage via downregulation of the mTOR pathway and xanthine oxidase activity” (Oncotarget, 2015).
pKi: −log10 of the molar value.

Molecular target: T1, xanthine oxidase (XOD) (Bos taurus, UniProt P80457)
T1 construct: gene XDH; purified bovine liver XOD
Experiment: enzyme kinetics, Lineweaver-Burk analysis with purified bovine liver XOD
Assay type: biochemical

T1 sequence (P80457 2-1332): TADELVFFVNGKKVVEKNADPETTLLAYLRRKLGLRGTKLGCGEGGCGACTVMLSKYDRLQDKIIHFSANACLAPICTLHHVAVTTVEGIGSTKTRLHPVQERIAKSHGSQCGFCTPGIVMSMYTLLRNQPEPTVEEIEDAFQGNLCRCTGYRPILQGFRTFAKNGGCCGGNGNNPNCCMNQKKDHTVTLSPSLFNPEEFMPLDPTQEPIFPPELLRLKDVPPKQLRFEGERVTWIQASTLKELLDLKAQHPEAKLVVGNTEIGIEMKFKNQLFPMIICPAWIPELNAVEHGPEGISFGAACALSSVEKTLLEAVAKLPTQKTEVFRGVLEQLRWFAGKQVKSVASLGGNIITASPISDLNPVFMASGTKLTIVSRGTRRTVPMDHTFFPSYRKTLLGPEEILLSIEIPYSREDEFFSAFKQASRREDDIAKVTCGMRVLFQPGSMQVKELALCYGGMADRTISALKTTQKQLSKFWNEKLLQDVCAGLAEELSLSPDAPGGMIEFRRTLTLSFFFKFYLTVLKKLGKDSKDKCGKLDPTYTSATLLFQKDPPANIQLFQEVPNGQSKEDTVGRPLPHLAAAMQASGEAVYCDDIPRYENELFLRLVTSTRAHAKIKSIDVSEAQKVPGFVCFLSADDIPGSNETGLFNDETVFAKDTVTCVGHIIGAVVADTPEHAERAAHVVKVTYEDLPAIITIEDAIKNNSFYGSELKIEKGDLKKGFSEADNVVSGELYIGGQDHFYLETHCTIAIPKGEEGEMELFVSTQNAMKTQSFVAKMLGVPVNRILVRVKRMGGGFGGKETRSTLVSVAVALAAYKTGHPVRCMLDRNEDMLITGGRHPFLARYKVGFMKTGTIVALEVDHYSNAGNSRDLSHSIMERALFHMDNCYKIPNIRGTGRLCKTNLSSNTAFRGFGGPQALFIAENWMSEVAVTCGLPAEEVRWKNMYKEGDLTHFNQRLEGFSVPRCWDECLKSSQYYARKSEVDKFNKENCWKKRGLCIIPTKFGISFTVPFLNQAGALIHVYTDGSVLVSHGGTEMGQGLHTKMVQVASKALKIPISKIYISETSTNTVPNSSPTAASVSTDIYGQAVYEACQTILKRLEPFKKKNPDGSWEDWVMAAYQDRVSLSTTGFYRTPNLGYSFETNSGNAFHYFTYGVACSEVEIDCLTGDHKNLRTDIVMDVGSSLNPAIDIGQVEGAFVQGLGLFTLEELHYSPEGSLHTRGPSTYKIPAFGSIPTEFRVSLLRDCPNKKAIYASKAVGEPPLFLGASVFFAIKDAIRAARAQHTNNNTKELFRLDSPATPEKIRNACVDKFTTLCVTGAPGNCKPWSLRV

How did the pKi turn out when Cn1c(=O)c2c(ncn2C)n(C)c1=O [caffeine, 1,3,7-trimethylxanthine] was run?
Its pKi is 2.40.
